Measurements from patent US20090155209A1, “NOVEL MACROCYCLIC INHIBITORS OF HEPATITIS C VIRUS REPLICATION” (priority 2007, published 2009).
Several values for one entry are separate records, joined by “and”; a condition that tells them apart may be missing. Identical values can stand only once. Like-named read-outs stand apart in the source and are kept apart here.

How the values were obtained:
[1] = Single ascending dose study, fasted and fed: safety and non-compartmental plasma PK; format: in vivo, healthy volunteers (human); conditions: for median percentage change in AUC0-inf between the fasted and fed conditions: 10 subjects
Experimental: A single ascending dose (SAD) study of the compound 100 was conducted in healthy volunteers. The compound 100 was administered as monotherapy both with and without food. The safety and pharmacokinetic profile of the single dose of the compound 100 was assessed.
Interim, blinded data were used for Pharmacokinetic (PK) study relating to food effects. With the exception of the 400 mg cohort, eight subjects were studied at each dose (single doses of 100, 200, or 800 mg of the sodium salt of the compound 100, which may be referred to herein as ITMN-191, administered in the fasting state). In the 400 mg cohort, ten subjects received single 400 mg doses of ITMN-191 under both fasted and fed conditions with a 5-day washout period between dosing. In the 100 mg cohort, subjects were sampled within 1 hour before dosing and at 0.5, 1, 1.5, 2, 2.5, 3, 4, 6, 8, 12, 18, 24, 32 and 48 hours after dosing. For subsequent cohorts, subjects were sampled within 1 hour before dosing and at 0.25, 0.5, 1, 1.5, 2, 2.5, 3, 4, 6, 8, 12, 18, 24, and 32 hours after dosing. Nominal (not actual) sampling times were used for the analysis. PK samples were analyzed using liquid chromatography-tandem mass spectrometry (LC/MS/MS with API 4000 mass spectrometer) following solid-phase extraction. The upper and lower limits of quantitation (ULOQ and LLOQ) are 100 and 0.01 ng/mL, respectively.
Pharmacokinetic parameter estimates were calculated using non-compartmental methods (implemented using Microsoft Excel®). Half-lives were determined by visual inspection of the log concentration-time plots to choose the terminal phase (minimum of three detectable observations). Using linear regression of the chosen terminal phase observations, elimination rate constants were calculated as the negative slope of the regression line and half-life as the natural log of 2 divided by the elimination rate constant.
Ten subjects received single 1600 mg doses of ITMN-191 under both fasted and fed conditions with a 5-day washout period between dosing. For each condition, subjects were sampled within 1 hour before dosing and at 0.25, 0.5, 1, 1.5, 2, 2.5, 3, 4, 6, 8, 12, 18, 24, and 32 hours after dosing. Pharmacokinetic parameter estimates were calculated using non-compartmental methods. Half-life (t1/2) was determined by visual inspection of the log concentration-time plots to choose the terminal phase (minimum of three detectable observations). Using linear regression of the chosen terminal phase observations, elimination rate constants were calculated as the negative slope and half-life as the natural log of 2 divided by the elimination rate constant.

[2] = Compartmental PK model fitted to plasma data of the 400 mg fed cohort; format: in vivo, healthy volunteers (human); conditions: median, compartmental PK parameter
Experimental: The compartmental model was constructed to fit the PK data from the 400 mg, fed cohort only. Candidate PK models were fit to plasma data using weighted, non-linear regression implemented in Adapt 5. (1, 2) Each subjects' data were fit separately for a total of 10 fitted profiles. Model discrimination was accomplished according to the “Rule of Parsimony” based on Akaike's Information Criterion. (3, 4)
The most robust fit to the data was obtained using a three-compartment model (one absorptive, two distributive) with first order absorption and elimination. […] No a priori assumptions regarding the number of phases were made; the fit of the observed data and the AIC were used to guide the selection of a one, two, or three-phase absorption.

[3] = system: HCV; assay: EC90 (viral sensitivity); format: cell-based, hepatitis C virus (HCV); conditions: Hepatitis C virus
[4] = individual subjects, single 1600 mg dose, Fasted
[5] = individual subjects, single 1600 mg dose, Fed

**Q.** Which results are given for CC(C)(C)OC(=O)N[C@H]1CCCCC/C=C\[C@@H]2C[C@@]2(C(=O)NS(=O)(=O)C2CC2)NC(=O)[C@@H]2C[C@@H](OC(=O)N3Cc4cccc(F)c4C3)CN2C1=O [ITMN-191]?
**A.** half-life ([1]; human, plasma, oral, 1600 mg, Harmonic Mean of 10 subjects, single 1600 mg dose, Fasted, read-out: t½ (converted)): 2.29 h; AUC0-inf ([1]; human, plasma, oral, 1600 mg, Harmonic Mean of 10 subjects, single 1600 mg dose, Fed, read-out: AUC0-inf): 949 ng·h/mL; Cmax ([1]; human, plasma, oral, 1600 mg, Harmonic Mean of 10 subjects, single 1600 mg dose, Fed, read-out: Cmax): 326 ng/mL; half-life ([1]; human, plasma, oral, 1600 mg, Harmonic Mean of 10 subjects, single 1600 mg dose, Fed, read-out: t½ (converted)): 2.43 h; AUC0-inf ([1]; human, plasma, oral, 1600 mg, Mean of 10 subjects, single 1600 mg dose, Fasted, read-out: AUC0-inf): 691 ng·h/mL; Cmax ([1]; human, plasma, oral, 1600 mg, Mean of 10 subjects, single 1600 mg dose, Fasted, read-out: Cmax): 622 ng/mL; half-life ([1]; human, plasma, oral, 1600 mg, Mean of 10 subjects, single 1600 mg dose, Fasted, read-out: t½ (converted)): 2.48 h; AUC0-inf ([1]; human, plasma, oral, 1600 mg, Mean of 10 subjects, single 1600 mg dose, Fed, read-out: AUC0-inf): 1070 ng·h/mL; Cmax ([1]; human, plasma, oral, 1600 mg, Mean of 10 subjects, single 1600 mg dose, Fed, read-out: Cmax): 528 ng/mL; half-life ([1]; human, plasma, oral, 1600 mg, Mean of 10 subjects, single 1600 mg dose, Fed, read-out: t½ (converted)): 2.56 h; AUC0-inf ([1]; human, plasma, oral, 1600 mg, Median of 10 subjects, single 1600 mg dose, Fasted, read-out: AUC0-inf): 737 ng·h/mL; Cmax ([1]; human, plasma, oral, 1600 mg, Median of 10 subjects, single 1600 mg dose, Fasted, read-out: Cmax): 685 ng/mL; Tmax ([1]; human, plasma, oral, 1600 mg, Median of 10 subjects, single 1600 mg dose, Fasted, read-out: Tmax): 0.5 h; half-life ([1]; human, plasma, oral, 1600 mg, Median of 10 subjects, single 1600 mg dose, Fasted, read-out: t½ (converted)): 2.21 h; AUC0-inf ([1]; human, plasma, oral, 1600 mg, Median of 10 subjects, single 1600 mg dose, Fed, read-out: AUC0-inf): 1120 ng·h/mL; Cmax ([1]; human, plasma, oral, 1600 mg, Median of 10 subjects, single 1600 mg dose, Fed, read-out: Cmax): 449 ng/mL; Tmax ([1]; human, plasma, oral, 1600 mg, Median of 10 subjects, single 1600 mg dose, Fed, read-out: Tmax): 1.75 h; half-life ([1]; human, plasma, oral, 1600 mg, Median of 10 subjects, single 1600 mg dose, Fed, read-out: t½ (converted)): 2.64 h; half-life ([1]; human, plasma, oral, 1600 mg, individual subjects, single 1600 mg dose, Fed, read-out: t½ (converted)): 3 h; half-life ([1]; human, plasma, oral, in most subjects, read-out: terminal half-life): 1 to 2 h; AUC0-inf [1, 4]: 890 ng·h/mL and 360 ng·h/mL and 529 ng·h/mL and 507 ng·h/mL and 907 ng·h/mL and 809 ng·h/mL and 753 ng·h/mL and 652 ng·h/mL and 720 ng·h/mL and 779 ng·h/mL; Cmax [1, 4]: 892 ng/mL and 225 ng/mL and 548 ng/mL and 214 ng/mL and 1000 ng/mL and 860 ng/mL and 305 ng/mL and 909 ng/mL and 822 ng/mL and 442 ng/mL; AUC0-inf [1, 5]: 1895 ng·h/mL and 583 ng·h/mL and 939 ng·h/mL and 1116 ng·h/mL and 1225 ng·h/mL and 1209 ng·h/mL and 806 ng·h/mL and 1133 ng·h/mL and 1174 ng·h/mL; Cmax [1, 5]: 1510 ng/mL and 381 ng/mL and 199 ng/mL and 100 ng/mL and 444 ng/mL and 592 ng/mL and 454 ng/mL and 346 ng/mL and 760 ng/mL and 493 ng/mL; Tmax [1, 5]: 1.5 h and 4 h and 2 h; t½ [1, 5]: 2.01 h and 2.65 h and 1.80 h and 3.35 h and 2.16 h and 2.63 h and 1.82 h and 2.70 h and 3.48 h; subjects with an increase in AUC0-inf under fed conditions ([1]; single 400 mg dose): 8 of 10; median percentage change in AUC0-inf between the fasted and fed conditions ([1]; single 400 mg dose): 26%; subjects with an increase in AUC0-inf under fed conditions ([1]; single 1600 mg dose): 10 of 10; median percentage change in AUC0-inf between the fasted and fed conditions ([1]; single 1600 mg dose): 54%; half-life ([2]; human, plasma, oral, n = 10, read-out: T1/2,λz (converted)): 1.53 h; Vd/F ([2]; human, plasma, oral, n = 10, read-out: Vss/F): 2950 L; CLt/F ([2]; n = 10): 3800 L/h; Vc/F ([2]; n = 10): 1975 L; EC90 [3]: 14.1 nM and 0.0106 µg/mL
